In patent US20260365646A1, “AKT1 MODULATORS” (Alterome Therapeutics, Inc., priority 2022, published 2026):

Target: T1, full length AKT E17K (Homo sapiens, UniProt P31749, E17K)
T1 construct: host or cells: HEK-293 (ATCC CRL-1573)
Assay: NanoBRET Target Engagement (TE) Intracellular Kinase Assay
Type: cell-based
Details: not given
From the text: The NanoBRET™ Target Engagement (TE) Intracellular Kinase Assays are based on the NanoBRET™ System (Promega Corporation), an energy transfer technique designed to measure molecular proximity in living cells. The NanoBRET™ TE Assays measure the apparent affinity of test compounds by competitive displacement of the NanoBRET™ tracer compound, which is a cell permeable molecule engineered to be reversibly bound to a NanoLuc® luciferase-kinase fusion expressed in cells. For compound screening, when a test compound binds to the selected kinase, the BRET signal is attenuated. […] All cells were evaluated for viability prior to transfection and optimization of the transfection was done prior to experimentation. […] Following transfection, cells were washed and resuspended in Opti-MEM. NanoBRET assays were performed in white, 384-well plates (Corning) at a density of 2×10^5 cells/well. All example compounds were prepared as concentrated stock solutions in DMSO (Sigma-Aldrich). Compounds are dissolved in DMSO to make 10 mM stock solution. […] A Labcyte ECHO 550 compound dispenser was used to facilitate compound transfer directly to cells. Cells were equilibrated for 2 hr with energy transfer probes and example compound prior to BRET measurements. […] For target engagement analysis, the energy transfer probes were added to the cells at concentrations optimized for the target in question (AKT E17K). Following compound incubation, NanoBRET NanoGlo Substrate (Promega Cat #Ni57D) and Extracellular Nanoluc Inhibitor (Promega Cat #N235C) was added according to the manufacturer's recommended protocol, and luminescence was measured on Envision Reader (Perkin Elmer) Multimode Luminometer equipped with 450 nm BPfilter (donor) and 600 nm LPfilter (acceptor), using 0.5 s integration time. Milli-BRET units (mBU) are calculated by multiplying the raw BRET values by 1000. Apparent tracer affinity values (EC50) were determined using the sigmoidal dose-response (variable slope). Competitive displacement data were then plotted and data were fit to determine the EC50 value for each example compound.

T1 sequence (P31749 whole entry E17K): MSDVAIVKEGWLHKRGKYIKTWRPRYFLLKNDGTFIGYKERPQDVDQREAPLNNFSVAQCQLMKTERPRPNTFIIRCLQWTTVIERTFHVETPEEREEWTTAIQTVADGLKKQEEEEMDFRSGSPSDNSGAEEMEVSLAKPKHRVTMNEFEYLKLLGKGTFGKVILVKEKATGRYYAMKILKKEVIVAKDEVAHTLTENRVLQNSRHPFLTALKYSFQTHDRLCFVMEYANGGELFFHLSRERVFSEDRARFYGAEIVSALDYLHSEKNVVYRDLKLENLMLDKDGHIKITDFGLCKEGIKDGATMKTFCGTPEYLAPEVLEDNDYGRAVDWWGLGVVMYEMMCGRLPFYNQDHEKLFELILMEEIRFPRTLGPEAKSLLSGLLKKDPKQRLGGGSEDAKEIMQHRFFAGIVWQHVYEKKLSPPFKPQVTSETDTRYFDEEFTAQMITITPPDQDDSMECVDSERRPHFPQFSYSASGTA

| Structure (SMILES) | EC50 [nM] |
| --- | --- |
| [2H]C([2H])([2H])Oc1c(N2CCN(Cc3ccc(-n4c(-c5cccnc5N)nc5ccc(-c6ccccc6)nc54)cc3)CC2)c(=O)c1=O [Example 23, 3-(4-(4-(2-(2-Aminopyridin-3-yl)-5-phenyl-3H-imidazo[4,5-b]pyridin-3-yl)benzyl)piperazin-1-yl)-4-(methoxy-d3)cyclobut-3-ene-1,2-dione] | 15 to 60 |
| COc1c(NC2CCCCN(Cc3ccc(-n4c(-c5cccnc5N)nc5ccc(-c6ccccc6)nc54)cc3)C2)c(=O)c1=O (centres unmarked) [Example 74, 3-((1-(4-(2-(2-aminopyridin-3-yl)-5-phenyl-3H-imidazo[4,5-b]pyridin-3-yl)benzyl)azepan-3-yl)amino)-4-methoxycyclobut-3-ene-1,2-dione] | 60 to 600 |
| CC(C)Oc1c(N2CCN(Cc3ccc(-n4c(-c5cccnc5N)nc5ccc(-c6ccccc6)nc54)cc3)CC2)c(=O)c1=O [Example 25, 3-(4-(4-(2-(2-Aminopyridin-3-yl)-5-phenyl-3H-imidazo[4,5-b]pyridin-3-yl)benzyl)piperazin-1-yl)-4-isopropoxycyclobut-3-ene-1,2-dione] | > 600 |
| Nc1ncccc1-c1nc2ccc(-c3ccccc3)nc2n1-c1ccc(CNc2c(O)c(=O)c2=O)cc1 [Example 5, 3-((4-(2-(2-Aminopyridin-3-yl)-5-phenyl-3H-imidazo[4,5-b]pyridin-3-yl)benzyl)amino)-4-hydroxycyclobut-3-ene-1,2-dione] | > 600 |
| CCSc1c(N(CC)C2CCN(Cc3ccc(-n4c(-c5cccnc5N)nc5ccc(-c6ccccc6)nc54)cc3)CC2)c(=O)c1=O [Example 93, 3-((1-(4-(2-(2-aminopyridin-3-yl)-5-phenyl-3H-imidazo[4,5-b]pyridin-3-yl)benzyl)piperidin-4-yl)(ethyl)amino)-4-(ethylthio)cyclobut-3-ene-1,2-dione] | 15 to 60 |
| Nc1ncccc1-c1nc2ccc(-c3ccccc3)nc2n1-c1ccc(CN2CCC(Nc3c(OC4CCCC4)c(=S)c3=S)CC2)cc1 [Example 16, 3-((1-(4-(2-(2-Aminopyridin-3-yl)-5-phenyl-3H-imidazo[4,5-b]pyridin-3-yl)benzyl)piperidin-4-yl)amino)-4-(cyclopentyloxy)cyclobut-3-ene-1,2-dithione] | 60 to 600 |
| Nc1ncccc1-c1nc2ccc(-c3ccccc3)nc2n1-c1ccc(CN2CCC(N3CCCSc4c3c(=O)c4=O)CC2)cc1 [Example 85, 6-(1-(4-(2-(2-aminopyridin-3-yl)-5-phenyl-3H-imidazo[4,5-b]pyridin-3-yl)benzyl)piperidin-4-yl)-2-thia-6-azabicyclo[5.2.0]non-1(7)-ene-8,9-dione] | 60 to 600 |
| COc1c(N2CCCC3(CCN(Cc4ccc(-n5c(-c6cccnc6N)nc6ccc(-c7ccccc7)nc65)cc4)C3)C2)c(=O)c1=O (centres unmarked) [Example 58, 3-(2-(4-(2-(2-Aminopyridin-3-yl)-5-phenyl-3H-imidazo[4,5-b]pyridin-3-yl)benzyl)-2,7-diazaspiro[4.5]decan-7-yl)-4-methoxycyclobut-3-ene-1,2-dione] | 15 to 60 |
| COc1c(N(C)C2CCN(Cc3ccc(-n4c(-c5cccnc5N)nc5cc(-c6ccccc6)cnc54)cc3)CC2)c(=O)c1=O [Example 32, 3-((1-(4-(2-(2-Aminopyridin-3-yl)-6-phenyl-3H-imidazo[4,5-b]pyridin-3-yl)benzyl)piperidin-4-yl)(methyl)amino)-4-methoxycyclobut-3-ene-1,2-dione] | 60 to 600 |
| CCOc1c(N2CCN(Cc3ccc(-n4c(-c5cccnc5N)nc5ccc(-c6ccccc6)nc54)cc3)CC2)c(=O)c1=O [Example 24, 3-(4-(4-(2-(2-Aminopyridin-3-yl)-5-phenyl-3H-imidazo[4,5-b]pyridin-3-yl)benzyl)piperazin-1-yl)-4-ethoxycyclobut-3-ene-1,2-dione] | 60 to 600 |
| CSc1c(N(C2CC2)C2CCN(Cc3ccc(-n4c(-c5cccnc5N)nc5ccc(-c6ccccc6)nc54)cc3)CC2)c(=O)c1=O [Example 95, 3-((1-(4-(2-(2-aminopyridin-3-yl)-5-phenyl-3H-imidazo[4,5-b]pyridin-3-yl)benzy1)piperidin-4-yl)(cyclopropyl)amino)-4-(methylthio)cyclobut-3-ene-1,2-dione] | 15 to 60 |
| COc1c(N2CCCC3(CN(Cc4ccc(-n5c(-c6cccnc6N)nc6ccc(-c7ccccc7)nc65)cc4)C3)C2)c(=O)c1=O [Example 65, 3-(2-(4-(2-(2-aminopyridin-3-yl)-5-phenyl-3H-imidazo[4,5-b]pyridin-3-yl)benzyl)-2,6-diazaspiro[3.5]nonan-6-yl)-4-methoxycyclobut-3-ene-1,2-dione] | 60 to 600 |
| Nc1ncccc1-c1nc2ccc(-c3ccccc3)nc2n1-c1ccc(CN2CCC(Nc3c(S)c(=O)c3=O)CC2)cc1 [Example 44, 3-((1-(4-(2-(2-aminopyridin-3-yl)-5-phenyl-3H-imidazo[4,5-b]pyridin-3-yl)benzyl)piperidin-4-yl)amino)-4-mercaptocyclobut-3-ene-1,2-dione] | 60 to 600 |

Same assay, conditions: read-out: NanoBRET AKT1E17K EC50; HEK-293 cells transfected with NanoLuc-AKT E17K; competitive displacement of NanoBRET tracer; 2 hr equilibration; 10-point 3-fold dilution

| Structure (SMILES) | EC50 [nM] |
| --- | --- |
| CCSc1c(N2C[C@H]3CN(Cc4ccc(-n5c(-c6cccnc6N)nc6ccc(-c7ccccc7)nc65)cc4)C[C@H]3C2)c(=O)c1=O [Example 88, 3-((3aR,6aS)-5-(4-(2-(2-aminopyridin-3-yl)-5-phenyl-3H-imidazo[4,5-b]pyridin-3-yl)benzyl)hexahydropyrrolo[3,4-c]pyrrol-2(1H)-yl)-4-(ethylthio)cyclobut-3-ene-1,2-dione] | < 15 |
| COc1c(NC2CCC3(CC2)CN(Cc2ccc(-n4c(-c5cccnc5N)nc5ccc(-c6ccccc6)nc54)cc2)C3)c(=O)c1=O [Example 98, 3-((2-(4-(2-(2-aminopyridin-3-yl)-5-phenyl-3H-imidazo[4,5-b]pyridin-3-yl)benzyl)-2-azaspiro[3.5]nonan-7-yl)amino)-4-methoxycyclobut-3-ene-1,2-dione] | < 15 |
| COc1c(NN2CCN(Cc3ccc(-n4c(-c5cccnc5N)nc5ccc(-c6ccccc6)nc54)cc3)CC2)c(=O)c1=O [Example 83, 3-((4-(4-(2-(2-aminopyridin-3-yl)-5-phenyl-3H-imidazo[4,5-b]pyridin-3-yl)benzyl)piperazin-1-yl)amino)-4-methoxycyclobut-3-ene-1,2-dione] | < 15 |
| COc1c(N2C[C@H]3C[C@@H]2CN3Cc2ccc(-n3c(-c4cccnc4N)nc4ccc(-c5ccccc5)nc43)cc2)c(=O)c1=O [Example 76, 3-((1R,4R)-5-(4-(2-(2-aminopyridin-3-yl)-5-phenyl-3H-imidazo[4,5-b]pyridin-3-yl)benzyl)-2,5-diazabicyclo[2.2.1]heptan-2-yl)-4-methoxycyclobut-3-ene-1,2-dione] | < 15 |
| COc1c(NC2CCN(Cc3ccc(-n4c(-c5cccnc5N)nc5ccc(-c6cccc(NC(C)=O)c6)nc54)cc3)CC2)c(=O)c1=O [Example 8, N-(3-(2-(2-Aminopyridin-3-yl)-3-(4-((4-((2-methoxy-3,4-dioxocyclobut-1-en-1-yl)amino)piperidin-1-yl)methyl)phenyl)-3H-imidazo[4,5-b]pyridin-5-yl)phenyl)acetamide] | < 15 |
| COc1c(N2CC3CCC(C2)N3Cc2ccc(-n3c(-c4cccnc4N)nc4ccc(-c5ccccc5)nc43)cc2)c(=O)c1=O [Example 71, 3-(8-(4-(2-(2-aminopyridin-3-yl)-5-phenyl-3H-imidazo[4,5-b]pyridin-3-yl)benzyl)-3,8-diazabicyclo[3.2.1]octan-3-yl)-4-methoxycyclobut-3-ene-1,2-dione] | < 15 |
| CCSc1c(N(C)C2CCN(Cc3ccc(-n4c(-c5cccnc5N)nc5ccc(-c6ccccc6)nc54)cc3)CC2)c(=O)c1=O [Example 49, 3-((1-(4-(2-(2-Aminopyridin-3-yl)-5-phenyl-3H-imidazo[4,5-b]pyridin-3-yl)benzyl)piperidin-4-yl)(methyl)amino)-4-(ethylthio)cyclobut-3-ene-1,2-dione] | < 15 |
| COc1c(N2CCC3(CCN(Cc4ccc(-n5c(-c6cccnc6N)nc6ccc(-c7ccccc7)nc65)cc4)C3)C2)c(=O)c1=O (centres unmarked) [Example 56, 3-(7-(4-(2-(2-Aminopyridin-3-yl)-5-phenyl-3H-imidazo[4,5-b]pyridin-3-yl)benzyl)-2,7-diazaspiro[4.4]nonan-2-yl)-4-methoxycyclobut-3-ene-1,2-dione] | < 15 |
| COc1c(N2CC[C@@]3(CCN(Cc4ccc(-n5c(-c6cccnc6N)nc6ccc(-c7ccccc7)nc65)cc4)C3)C2)c(=O)c1=O [Example 62, (R)-3-(7-(4-(2-(2-Aminopyridin-3-yl)-5-phenyl-3H-imidazo[4,5-b]pyridin-3-yl)benzyl)-2,7-diazaspiro[4.4]nonan-2-yl)-4-methoxycyclobut-3-ene-1,2-dione] | < 15 |
| COc1c(N2CCC3(CC2)CN(Cc2ccc(-n4c(-c5cccnc5N)nc5ccc(-c6ccccc6)nc54)cc2)C3)c(=O)c1=O [Example 60, 3-(2-(4-(2-(2-Aminopyridin-3-yl)-5-phenyl-3H-imidazo[4,5-b]pyridin-3-yl)benzyl)-2,7-diazaspiro[3.5]nonan-7-yl)-4-methoxycyclobut-3-ene-1,2-dione] | < 15 |
